Consider 62 compounds from a melting point compilation (Tetko et al.; mined from patent text by program, amines drawn as free bases though some values may be those of a salt).

By melting point is commonly meant the temperature of the solid-liquid transition. Take `COc1c(O)cc(C(C)(C)C)c(O)c1C(=O)Nc1ccc(S(=O)(=O)C(F)(F)F)cc1Cl`: the melting point fell in the range of 171 to 175 °C.
The figure for `N#Cc1ccc(-c2ccc(C=Cc3ccccc3)o2)nc1` is 154 to 155 °C; for `Cc1ccc(-c2nccc(-c3cccc(C(=O)O)c3)n2)cc1` it is 225 to 226 °C; for `COc1ccc(N2CCN(c3ccc(F)cc3)CC2)c(-c2ccc(N(C)C)cc2)n1` it is 168 to 169 °C.
The figure for `COC(=O)c1cc(COc2ccccc2)cc(C(=O)OC)c1` is 95 to 97 °C; for `CNC(=O)Oc1ccc2c(N(C)CCN3CCOCC3)noc2c1` it is 94 to 95 °C.
Take `COC(=O)c1c(C)[nH]c(-c2ncncc2Cl)c1C(=O)OC`: the melting point lay in the range of 180 to 181 °C.
The figure for `CCCc1nc2c(N)nc3cc(OCc4ccccc4Cl)ccc3c2n1CC(C)C` is 216 to 218 °C.
In the case of `O=C(NCCC1CCN(c2noc3cc(Cl)ccc23)CC1)c1nsc2ccccc12` it was 132 to 134 °C; in that of `C=C(CCCCC)C(=O)c1ccc(OCC(=O)O)c(Cl)c1Cl`, 103 to 106 °C.
Consider `CCOC(=O)C(=O)c1ccc(OCCCCCCc2cccc(OCc3ccccc3)c2OCc2ccccc2)cc1`, for which the melting point lay in the range of 39 to 42 °C.
Regarding `COCCN1C(=O)CCCc2cc(N)ccc21`, the melting point lay within 134 to 135 °C.
The compound `CN(C)C=CC=C(C#N)c1cccnc1` gave a melting point of 117 to 120 °C.
In the case of `CCCc1c(OC)n2c3c(=O)n(C)c(=O)n(C)c3nc2n(Cc2ccccc2)c1=O` it was 199 to 201 °C; in that of `CC(C)COc1ccc(C(=O)NCC(=O)O)cc1`, 140 to 142 °C; in that of `O=C(O)CCC1CCC(=O)N1` (configuration not stated), 125 to 127 °C.
In the case of `Cc1cc(CCNc2ncnc3c(F)ccc(F)c23)ccc1O` it was 244 to 251 °C; in that of `CCCc1nc(Cl)c(-c2ccc(C)cc2)c(Cl)n1`, 91 to 93 °C; in that of `CN(C)CCCC1CCCN(C(=O)N2c3ccccc3C(=O)Nc3cccnc32)C1` (configuration not stated), 115 to 117 °C.
In the case of `COc1ccc(-n2cnnc2C(C)O)cc1` (configuration not stated) it was 170 °C; in that of `CCc1cc(C(=O)c2ccccc2Cl)c(-n2c(C)nnc2CNC(=O)c2c[nH]c3ccccc23)s1`, 140 to 145 °C; in that of `CN1C(=O)[C@H](NC(=O)/C=C/c2ccc(C(F)(F)F)cc2)N=C(c2ccccc2)c2ccccc21`, 133 to 137 °C.
Compound `COc1ccc(Cl)cc1C(=O)N(CCCC(=O)O)C(c1ccccc1)c1ccccc1` returned a melting point of 176 to 178 °C.
In the case of `COc1ccc2c(c1)CCN1C(=O)C3=C(CC21)NCCC3` (configuration not stated) it was 202 to 205 °C; in that of `CCCCNC(=O)Nc1ccc(N(CCC)CCC)cc1C(=O)NCC1CCN(C(c2ccccc2)c2ccccc2)CC1`, 172 °C; in that of `Oc1ccc(C2OCC3(CO2)COC(c2ccc(O)cc2)OC3)cc1` (configuration not stated), 251 to 253 °C.
For the compound `NNC(=O)c1cn(C2CCN(Cc3ccccc3)C2)nn1` (configuration not stated), the melting point turned out to be 123 °C.
In the case of `CCCCOc1ccc(S(=O)(=O)N2CC(NCC(O)c3ccc(O)c(NS(C)(=O)=O)c3)C2)cc1` (configuration not stated) it was 67 to 70 °C; in that of `COc1cc(N2CCN([C@H]3CC[C@@H](c4cn(C)c5ccc(C#N)cc54)CC3)CC2)c2ncc(C)cc2c1`, 190 to 192 °C; in that of `Cc1nnsc1C(=O)Nc1ccc(-n2nc(C(F)(F)F)c(Cl)c2C2CC2)c(F)c1`, 143 to 147 °C.
The figure for `O=c1[nH]c(=O)n(C2CC(O)C(COCc3ccccc3)O2)cc1F` (configuration not stated) is 129 to 130 °C; for `CC1=CN2C(=NC(c3ccc(C)cc3)C2C(=O)C(=O)O)C=C1` (configuration not stated) it is 190 to 195 °C; for `CCOC(=O)CCC(C)C1CC=C2C3=C(CCC21C)C1(C)CCC(O)C(C)(C)C1CC3` (configuration not stated) it is 122 to 124 °C.
Compound `Cc1nnc(CNC(=O)CCl)n1-c1ccc(Cl)cc1C(=O)c1ccccc1` displayed a melting point of 140 to 141 °C.
In the case of `O=C(O)CCc1conc1-c1ccc(Cl)c(Cl)c1` it was 181 to 182 °C; in that of `O=C(O)CCCN1CCN(C2=Nc3ccccc3Cc3ccccc32)CC1`, 207 to 208 °C.
The figure for `COc1cc(C(=O)N2CCC(CCN3CCC(C(=O)c4nc5ccccc5n4Cc4ccc(F)cc4)CC3)(c3ccc4c(c3)OCO4)C2)cc(OC)c1OC` (configuration not stated) is 112 to 114 °C; for `O=[N+]([O-])c1cc(N=c2sc(=S)n3n2CCCC3)c(F)cc1Cl` it is 171 to 173 °C.
In the case of `COc1ccc(C(O)c2cccc(OCc3ccccc3)c2)cc1` (configuration not stated) it was 50 to 60 °C; in that of `NS(=O)(=O)c1ccc(-c2c(-c3ccccc3)noc2COCCO)cc1`, 110 to 121 °C; in that of `O=C(NC(Cc1ccc(-c2cccc3ccccc23)cc1)C(=O)O)C(CS)Cc1ccccc1` (configuration not stated), 158 °C.
For the compound `CCOC(=O)C(=O)Nc1cc(NC=O)ccc1O`, the melting point was greater than 300 °C.
Regarding `COc1ccc2ccc(N3C(=O)c4ccccc4C3CC(=O)C3CCCCC3)nc2n1` (configuration not stated), the melting point came to 140 °C.
In the case of `CNC1=NN(C(=O)c2ccccc2C(F)(F)F)C(C)(C)S1` it was 164 to 169 °C.
The figure for `Cn1c(=O)nc(-c2ccccc2)c2cc3c(cc21)OCO3` is 253 to 255 °C; for `CN1C(=O)N(c2ccccc2F)C(=O)C1=CC1CCCCC1` it is 131 to 137 °C; for `CN1CCN(c2ccc(Nc3nc(N)c(C(=O)c4c(F)cccc4F)s3)cc2)CC1` it is 168 to 170 °C.
The figure for `CCOC(=O)NNC(=O)NCC(=O)OC` is 116 to 121 °C.
In turn, `CN(C)c1cc2c(cc1Cl)NC(=O)CC(c1cccc(-c3csc(CO)n3)c1)=N2` showed a melting point of 176 to 178 °C.
In the case of `Cc1cccc(CC(=O)c2ccnc(-c3ccc(OCC(N)=O)cc3)c2)n1` it was 168 °C.
In the case of `CCCCCC(Cc1ccc(OC)c(OCCc2ccccc2)c1)NC(=O)OC(C)(C)C` (configuration not stated) it was 91.5 to 92.5 °C; in that of `O=C1NCc2cc(C3CC3)sc21`, 109 to 110 °C; in that of `CCCNC(=O)C1(CCCCc2ccc([N+](=O)[O-])cc2)c2ccccc2-c2ccccc21`, 109 to 110 °C.
The figure for `O=C1NC(=O)c2c1c(-c1ccccc1Cl)cc1oc3cc(CCCCO)c(O)cc3c21` is 256 to 259 °C.
As to `N#Cc1cnc2sc(I)cc2c1Cl`, the melting point lay within 181 to 182 °C.
`CCOCc1nc2c(N)nc3ccccc3c2n1Cc1cc(C)no1` came in with a melting point of 178 to 180 °C.
In the case of `CCN1CCC2(CC1)c1ccccc1Sc1c(O)cccc12` it was 223 to 225 °C; in that of `COC(=O)c1cc2cc(-c3ccc(C)cc3)ccc2nc1C`, 84 to 87 °C; in that of `CC[C@H](Cn1cnnc1)n1cnc2cc3c(=O)n([C@H](CC)Cn4ncnn4)cnc3cc2c1=O`, 130 to 132 °C.
`COc1ccc(-c2ccc(C(C)=O)cc2)cc1F` had a melting point of 149 to 150 °C.
The figure for `Cc1c(C)c(N2Cc3cc4c(cc3C2)OCO4)c(C)c2c1OC(C)(C)C2c1ccc(C(C)C)cc1` (configuration not stated) is 175 to 177 °C.
Take `CC(=O)NN1C(=O)c2cc3ccc4c(c3c(-c3ccc5c(c3)OCO5)c2C1=O)OCO4`: the melting point was in the range of 281 to 283 °C.
